One assay concerns HDAC5 nuclear export. Kind of assay: PMA-induced GFP-HDAC5 nuclear export in Cos7 cells (fluorescence microscopy). In kind it is cell-based. Here is the method: A, B, Cos7 cells were co-transfected with expression vectors encoding GFP-tagged HDAC5 (GFP-HDAC5) and constitutively active protein kinases as indicated, and then exposed to phorbol-12-myristate-13-acetate (PMA, […]) for 3 hours. […] A-F, The cells were fixed and the subcellular localization of GFP-HDAC5 was visualized by fluorescence microscopy.
C, D, Cos7 cells were transfected with GFP-HDAC5-WT or GFP-HDAC5-S280D and then exposed to PMA for 3 hours. GFP-HDAC5-S280D but not GFP-HDAC5-WT was resistant to PMA-induced nuclear export. *, p<0.05 versus without PMA, n=4. E, F, Cos7 cells were transfected with Flag-HDAC5-WT or Flag-HDAC5-S280A mutant, and then pretreated with forskolin followed with the exposure to PMA. Phosphorylation of HDAC5 in cell lysates was analyzed by immunoblotting with phospho-specific HDAC5 antibodies that recognize the HDAC5 phosphorylated at Ser259 (E) and Ser498 (F). G, H, Cos7 cells were transfected with Flag-HDAC5-WT, Flag-HDAC5-S280A or Flag-HDAC5-S280D, and then pretreated with forskolin, followed with the exposure to PMA. Coimmunoprecipitation of Flag-HDAC5 in cell lysates and then immunoblotting with anti-14-3-3 beta and anti-Flag antibodies in immunoprecipitates were performed. 14-3-3 in total cell lysates (5% of the input) was determined by immunoblotting with anti-14-3-3 antibodies. Representative blots are shown, n=3.
The cells were fixed and GFP-HDAC5 localization was analyzed by fluorescence microscopy.
For analysis of GFP-HDAC5 subcellular localization in NRVMs and Cos7 cells, cells were plated in the presence of adenovirus (multiplicity of infection, 50 to 100) on 35 mm dishes containing DMEM plus 10% FBS as previously described (Vega R B, et al. (2004) Protein kinases C and D mediate agonist-dependent cardiac hypertrophy through nuclear export of histone deacetylase 5. Mol Cell Biol 24(19):8374-8385).
(§1) After 24 hour culture, cells were maintained in serum-free DMEM medium for additional 24 hours, and then exposed to various inducers or inhibitors (for 30 minutes) prior to PE or PMA stimulation for indicated times. The cells were washed with PBS and fixed with 3.7% formaldehyde in PBS. Images were captured at a magnification of ×60, using a fluorescence microscope (Olympus BX51) equipped with a digital camera and Spot software system (RT Color Diagnostic Instruments). For analysis of the myocyte marker, sarcomeric α-actinin antibody and DAPI in neonatal cardiomyocyte, immunocytochemistry were performed according to a standard protocol. For subcellular localization of endogenous HDAC5 in cardiomyocyes, we fixed cells and used the detergent Saponin (Sigma, 84510) to make cells permeable, and then performed immunocytochemistry with anti-HDAC5 antibody (Santa Cruz, sc-11419). For subcellular localization of HDAC5, total around 200 cells were counted in each condition. For cardiomyocyte size, total myocyte surface areas were calculated using NIH Image J software, and expressed as the average of 100 randomly selected cells per condition.

Assay [1] has as its system ANF, β-MHC, α-SMA expression. In words: RT-PCR of cardiac fetal gene expression in NRVMs. In kind it is cell-based, rat. To be noted: PE 24 hours. Here is the method:
The mRNA was extracted from the cell lysates and then RT-PCR with the primers for ANF, β-MHC, α-SMA, and GADPH (internal control) was performed. *, p<0.05 versus PE+Ad-GFP; #, p<0.05 versus PE+GFP-HDAC5-WT, n=4.
The mRNA was extracted from the cell lysates, and quantitative RT-PCR with the primers for ANF and GADPH (internal control) were performed as described in the Examples. Quantitative data are shown (n=4).
Total RNA was isolated from NRVM using TRIzol (Invitrogen Corp.). Firststrand cDNA was synthesized with the SuperScript Preamplification System (Gibco-BRL). cDNA was amplified by PCR for 30 cycle (Applied Biosystem) as described previously (4, 5). Rat GAPDH served as an internal control. The following oligonucleotide primers were used in this study: rat ANF, sense 5′-[…]-3′ (SEQ ID NO:11) and antisense 5′-[…]-3′(SEQ ID NO:12) rat α-SMA, sense 5′-[…]-3′ (SEQ ID NO:13) and antisense 5′-[…]-3′ (SEQ ID NO:14); rat β-MHC (myosin heavy chain), sense 5′-[…]-3′ (SEQ ID NO:15) and antisense 5′-[…]-3′ (SEQ ID NO:16); rat GAPDH, sense 5′-[…]-3′ (SEQ ID NO:17) and antisense 5′-[…]-3′ (SEQ ID NO:18). Experiments were repeated three times.

A further assay deals with NRVMs. In words: Cardiomyocyte hypertrophy (cell size, α-actinin immunostaining) in NRVMs. In kind it is cell-based, rat.
Excerpt: A-H, Cardiomyocyte size was detected by immunostaining with anti-α-actinin antibody. […] The cells were fixed and analyzed for GFP-HDAC5 localization, α-actinin staining and nuclear DAPI staining *, p<0.05 versus without PE; #, p<0.05 versus with PE alone. I, Schematic model for PKA-dependent regulation of HDAC5 subcellular localization and gene transcription.
Cardiomyocyte protein marker α-actinin was detected by immunofluorescence using antibody against α-actinin and fluorescein-conjugated secondary antibody.
as §1

From patent publication US20130156753A1 (UNIVERSITY OF ROCHESTER, priority 2010, published 2013) come the findings set out here.

For `CCCC(=O)Nc1ncnc2c1ncn2[C@@H]1O[C@@H]2COP(=O)(O)O[C@H]2[C@H]1OC(=O)CCC` [cAMP, Dibutyryl-cAMP], the “PMA-induced HDAC5 nuclear export” value in the assay on HDAC5 nuclear export (GFP-HDAC5-WT, pretreatment, then PMA for 3 hours) is reported as “totally blocked HDAC5 nuclear export”. Further, in the assay on HDAC5 nuclear export (S280A mutant, cAMP pretreatment, PMA 3 hours), the “PMA-induced nuclear export of GFP-HDAC5-S280A” value is given as “inhibited nuclear export of GFP-HDAC5-WT but not GFP-HDAC5-S280A”. Besides, the “PE-elevated expression of ANF, β-MHC and α-SMA” value in assay [1] (NRVMs with GFP-HDAC5-WT, cAMP pretreatment) was “blocked this elevated gene expression”. For the same compound, the “PE-induced ANF expression (quantitative RT-PCR)” value in assay [1] (NRVMs, cAMP 30 min) is recorded as “decreases PE-induced ANF expression”. Moreover, the “size of cardiomyocytes after PE” value in the assay with NRVMs (NRVMs with GFP-HDAC5-WT, cAMP 30 min, PE 24 hours) was “decreased the size of cardiomyocytes”. The “PE/Angiotensin II-induced cardiomyocyte hypertrophy” value with NRVMs (NRVMs, forskolin 10 μM, cAMP 500 μM, Rolipram 10 μM 30 min, PE or Angiotensin II 24 hours) is “inhibit PE/Angiotensin II-induced cardiomyocyte hypertrophy”.
